Assay results as given in the supplement of paper PMC10307832.

Assays:
Assay in all cases: relative viability (nuclei count vs DMSO), 5 days (fraction); higher = more cells survive
Ispinesib = compound: Cc1ccc(C(=O)N(CCCN)[C@@H](c2nc3cc(Cl)ccc3c(=O)n2Cc2ccccc2)C(C)C)cc1 [Ispinesib]
Outline: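 On vehicle-anchored 1536-well plates, lung cancer cell lines held overnight at 37 °C were pinned with five library-drug doses (not always all listed) spaced by √10. With no medium change over 5 days, they were then fixed, permeabilised and Hoechst-stained in one step and imaged at 4×. MetaXpress counted nuclei, and viability is the median across plates of treated-well over vehicle-well nuclei. Acceptance needed control CV below 25% and at least one doubling.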

Linsitinib + Phenformin = compound: C[C@]1(O)C[C@@H](c2nc(-c3ccc4ccc(-c5ccccc5)nc4c3)c3c(N)nccn32)C1 [Linsitinib] + N=C(N)NC(=N)NCCc1ccccc1 [Phenformin] (partner 250 µM)
Outline: (§1)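 Five library-drug doses in √10 steps were combined with a fixed anchor-drug dose, or a single drug was given alone, by pin tool to lung cancer cell lines in 1536-well plates the day after seeding. Nuclei were stained and counted after 5 days. Relative viability is the nuclei count in treated wells over that in vehicle wells, taken as the median of duplicate plates.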

Ispinesib + Lapatinib = compound: Cc1ccc(C(=O)N(CCCN)[C@@H](c2nc3cc(Cl)ccc3c(=O)n2Cc2ccccc2)C(C)C)cc1 [Ispinesib] + CS(=O)(=O)CCNCc1ccc(-c2ccc3ncnc(Nc4ccc(OCc5cccc(F)c5)c(Cl)c4)c3c2)o1 [Lapatinib] (partner 2 µM)
Outline: as §1

Ispinesib + Tozasertib = compound: Cc1ccc(C(=O)N(CCCN)[C@@H](c2nc3cc(Cl)ccc3c(=O)n2Cc2ccccc2)C(C)C)cc1 [Ispinesib] + Cc1cc(Nc2cc(N3CCN(C)CC3)nc(Sc3ccc(NC(=O)C4CC4)cc3)n2)n[nH]1 [Tozasertib] (partner 0.1 µM)
Outline: as §1

Row | Cell Line | relative viability (Ispinesib; 0.001 µM) | relative viability (Ispinesib; 0.003162 µM) | relative viability (Ispinesib; 0.01 µM) | relative viability (Ispinesib; 0.03162 µM) | relative viability (Ispinesib; 0.1 µM) | relative viability (Linsitinib + Phenformin; first compound 0.01 µM) | relative viability (Linsitinib + Phenformin; first compound 0.03162 µM) | relative viability (Linsitinib + Phenformin; first compound 0.1 µM) | relative viability (Linsitinib + Phenformin; first compound 0.3162 µM) | relative viability (Linsitinib + Phenformin; first compound 1 µM) | relative viability (Ispinesib + Lapatinib; first compound 0.001 µM) | relative viability (Ispinesib + Lapatinib; first compound 0.003162 µM) | relative viability (Ispinesib + Lapatinib; first compound 0.01 µM) | relative viability (Ispinesib + Lapatinib; first compound 0.03162 µM) | relative viability (Ispinesib + Lapatinib; first compound 0.1 µM) | relative viability (Ispinesib + Tozasertib; first compound 0.001 µM) | relative viability (Ispinesib + Tozasertib; first compound 0.003162 µM) | relative viability (Ispinesib + Tozasertib; first compound 0.01 µM) | relative viability (Ispinesib + Tozasertib; first compound 0.03162 µM) | relative viability (Ispinesib + Tozasertib; first compound 0.1 µM)
1 | CAL-12T | 1.05 | 1.13 | 1.1 | 0.664 | 0.18 | 0.573 | 0.573 | 0.619 | 0.528 | 0.558 | 0.625 | 0.692 | 0.742 | 0.488 | 0.235 | 0.244 | 0.361 | 0.296 | 0.213 | 0.222
2 | COR-L23 | 1.11 | 1.04 | 1.19 | 0.512 | 0.171 | 0.434 | 0.414 | 0.467 | 0.347 | 0.469 | 1.03 | 1.06 | 0.814 | 0.147 | 0.272 | 0.26 | 0.231 | 0.204 | 0.178 | 0.152
3 | COR-L 105 | 1.1 | 0.901 | 0.766 | 0.397 | 0.34 | 0.554 | 0.451 | 0.49 | 0.478 | 0.406 | 0.347 | 0.311 | 0.251 | 0.247 | 0.265 | 0.378 | 0.358 | 0.365 | 0.343 | 0.329
4 | EKVX | 0.996 | 0.993 | 1.07 | 0.856 | 0.573 | 0.278 | 0.21 | 0.235 | 0.216 | 0.224 | 0.208 | 0.206 | 0.204 | 0.223 | 0.131 | 0.417 | 0.386 | 0.424 | 0.373 | 0.223
5 | EMC-BAC-2 | 1.04 | 1.26 | 1.11 | 0.395 | 0.421 | 0.506 | 0.487 | 0.485 | 0.322 | 0.388 | 0.936 | 0.933 | 1 | 0.724 | 0.233 | 0.28 | 0.189 | 0.289 | 0.292 | 0.261
6 | EPLC-272H | 0.868 | 1.04 | 0.909 | 0.342 | 0.151 | 0.369 | 0.335 | – | – | 0.312 | 0.919 | 1.11 | 1.02 | 0.561 | 0.145 | 0.211 | 0.448 | 0.24 | 0.114 | 0.25
7 | H3255 | 0.999 | 1.15 | 1.02 | 0.701 | 0.335 | 0.342 | 0.354 | 0.392 | 0.366 | 0.375 | 0.214 | 0.171 | 0.205 | 0.176 | 0.236 | 0.599 | 0.767 | 0.717 | 0.601 | 0.614
8 | HARA | 1.04 | 1.16 | 1.06 | 0.872 | 0.169 | 0.427 | 0.469 | 0.435 | – | 0.4 | 0.8 | 0.856 | 0.987 | 0.151 | 0.144 | 0.151 | 0.115 | 0.332 | 0.0895 | 0.107
9 | HCC-15 | 1.08 | 1.07 | 1.09 | 0.473 | 0.197 | 0.512 | 0.46 | 0.433 | – | 0.292 | 0.91 | 0.983 | 1.03 | 0.402 | 0.14 | 0.48 | 0.414 | 0.505 | 0.281 | 0.227
10 | HCC-44 | 0.974 | 1.07 | 1.04 | 0.883 | 0.186 | 0.181 | 0.232 | 0.174 | 0.143 | 0.136 | 1.05 | 1.01 | 1.37 | 0.658 | 0.158 | 0.928 | 1.05 | 1.09 | 0.679 | 0.209
11 | HCC-78 | 0.943 | 1.04 | 1.08 | 0.533 | 0.791 | 0.551 | 0.717 | 0.565 | 0.701 | 0.621 | 0.762 | 1.47 | 0.811 | – | 0.308 | 0.444 | 0.426 | 0.521 | 0.449 | 0.407
12 | HCC-366 | 1.03 | 1.03 | 1.08 | 0.935 | 0.0315 | 0.612 | 0.604 | 0.598 | 0.574 | 0.377 | 1.03 | 1.12 | 1.33 | 0.0151 | 0.0387 | 0.172 | 0.13 | 0.663 | 0.0791 | 0.0441
13 | HCC-827 | 1.08 | 1.07 | 1.02 | 0.929 | 0.876 | 0.423 | 0.433 | 0.418 | – | 0.385 | 0.194 | 0.194 | 0.181 | 0.189 | 0.0607 | 0.43 | 0.534 | 0.43 | 0.446 | 0.372
14 | HOP-62 | 1.06 | 1.07 | 1.26 | 0.967 | 0.338 | 0.663 | 0.718 | 0.677 | – | 0.61 | 1.11 | 1.07 | 1.15 | 1.11 | 0.231 | 0.373 | 0.47 | 0.389 | 0.449 | 0.406
15 | LC-2-ad | 1.04 | 1.1 | 1.07 | 0.536 | 0.175 | 0.606 | 0.572 | 0.558 | 0.332 | 0.353 | 0.949 | 1.02 | 1.07 | 0.504 | 0.114 | 0.42 | 0.52 | 0.384 | 0.322 | 0.241
16 | LCLC-97TM1 | 1.02 | 0.964 | 1.18 | 0.6 | 0.132 | 0.41 | 0.432 | 0.43 | 0.194 | 0.205 | 0.998 | 1.18 | 0.858 | 0.673 | 0.112 | 0.196 | 0.143 | 0.215 | 0.173 | 0.191
